Data as given in patent US10500217B2 (LESLIE RAY MATTHEWS, M.D., LLC, priority 2018, dated 2019).

Test system: Glial cells (DBTRG-05MG; CRL-2020)
Experiment: Lactate dehydrogenase (LDH) cell death assay: percentage cell survival of glia cells with or without H2O2 exposure
Format: cell-based, human
Conditions: for Percentage Cell Survival (% ± SD), H202 Given Last (30 min before H202 given/pre-treatment) / Percentage Cell Survival (% ± SD), H202 (added 30 min after): H2O2 0.25M about 30 min after treatment; for Percentage Cell Survival (% ± SD), H202 Given 1st (30 min after H202 Given, mimics acute injury) / Percentage Cell Survival (% ± SD), H202 (added 30 min before): H2O2 0.25M about 30 min before treatment; for Percentage Cell Survival (% ± SD), Control: control (PBS) instead of H2O2; for Percentage Cell Survival (% ± SD), H202 given (30 min after treatment with Vitamin D) / Percentage Cell Survival (% ± SD), H202 Given (30 min before treatment with Vitamin D) / Percentage Cell Survival (% ± SD), Control (PBS): Table 3; for Percentage Cell Survival (% ± SD), H202 given (30 min after treatment with Vitamin D): H2O2 0.25M 30 min after treatment; for Percentage Cell Survival (% ± SD), H202 Given (30 min before treatment with Vitamin D): H2O2 0.25M 30 min before treatment; for Percentage Cell Survival (% ± SD), Control (PBS): no H2O2
Protocol: Glial cells were purchased from ATCC (DBTRG-05MG; CRL-2020) and were derived from the brain of a […] with glioblastoma. […] Glial cells were subcultured at a ratio of about 1:4 every 2 to 3 days. Cell death was measured by the CytoTox 96 Non-Radioactive Cytotoxicity Assay according to the manufacturer's instructions (Promega, Madison, Wis.). Culture medium (500 μl) was recovered from and incubated for about 30 min in the dark with a buffer containing NAD+, lactate, and tetrazolium. Lactate Dehydrogenase (LDH) converts lactate to pyruvate, generating NADH which reduces tetrazolium (yellow) to formazan (red), which is detected by […] (490 nm). LDH release, a marker for cell death, was expressed as a percentage of the LDH in the medium over the total LDH. Data was analyzed using a two-tailed t-test after applying ANOVA to the data. Differences were considered significant when p<0.01. Glia cells (10^6 cells) were plated in triplicates in 6-well plates. […] Percentage cell survival was calculated about 24 hours later using LDH assay. […] Glia cells (10^6 cells) were plated in triplicates in 6-well plates. […] Percentage cell survival was calculated about 24 hours later using LDH assay. […] Glia cells (10^6 cells) were plated in triplicates in 6-well plates. […] Percentage cell survival was calculated about 24 hours later using LDH assay.

[1] = Table 1, survival about 24 h later, 3 experiments
[2] = Table 2, Vitamin D3 (1/5), Hsp72 (1/5), Glutathione 200 mg/ml, 24 h, 4 experiments

Row | Compound | Percentage Cell Survival (% ± SD), H202 Given Last (30 min before H202 given/pre-treatment) [1] [%] | Percentage Cell Survival (% ± SD), H202 Given 1st (30 min after H202 Given, mimics acute injury) [1] [%] | Percentage Cell Survival (% ± SD), Control [1] [%] | Percentage Cell Survival (% ± SD), H202 (added 30 min after) [2] [%] | Percentage Cell Survival (% ± SD), H202 (added 30 min before) [2] [%] | Percentage Cell Survival (% ± SD), Control [2] [%] | Percentage Cell Survival (% ± SD), H202 given (30 min after treatment with Vitamin D) (Vitamin D3 5 ng/m1, 24 h) [%] | Percentage Cell Survival (% ± SD), H202 Given (30 min before treatment with Vitamin D) (Vitamin D3 5 ng/m1, 24 h) [%] | Percentage Cell Survival (% ± SD), Control (PBS) (Vitamin D3 5 ng/m1, 24 h) [%] | Percentage Cell Survival (% ± SD), H202 given (30 min after treatment with Vitamin D) (Vitamin D3 25 ng/m1, 24 h) [%] | Percentage Cell Survival (% ± SD), H202 Given (30 min before treatment with Vitamin D) (Vitamin D3 25 ng/m1, 24 h) [%] | Percentage Cell Survival (% ± SD), Control (PBS) (Vitamin D3 25 ng/m1, 24 h) [%] | Percentage Cell Survival (% ± SD), H202 given (30 min after treatment with Vitamin D) (Vitamin D3 50 ng/m1, 24 h) [%] | Percentage Cell Survival (% ± SD), H202 Given (30 min before treatment with Vitamin D) (Vitamin D3 50 ng/m1, 24 h) [%] | Percentage Cell Survival (% ± SD), Control (PBS) (Vitamin D3 50 ng/m1, 24 h) [%] | Percentage Cell Survival (% ± SD), H202 Given (30 min before treatment with Vitamin D) (Vitamin D3 75 ng/m1, 24 h) [%] | Percentage Cell Survival (% ± SD), Control (PBS) (Vitamin D3 75 ng/m1, 24 h) [%] | Percentage Cell Survival (% ± SD), H202 given (30 min after treatment with Vitamin D) (Vitamin D3 100 ng/m1, 24 h) [%] | Percentage Cell Survival (% ± SD), H202 Given (30 min before treatment with Vitamin D) (Vitamin D3 100 ng/m1, 24 h) [%] | Percentage Cell Survival (% ± SD), Control (PBS) (Vitamin D3 100 ng/m1, 24 h) [%]
1 | C=C1CC[C@H](O)C/C1=C/C=C1\CCC[C@]2(C)[C@@H]([C@H](C)CCCC(C)C)CC[C@@H]12 [Vitamin D3, Cholecalciferol] | 28.56 ± 8.9 | 15.27 ± 7.4 | 94.64 ± 4.6 | 12.68 ± 3.5 | 10.36 ± 2.3 | 97.28 ± 4.3 | 9.75 ± 3.6 | 6.22 ± 2.8 | 96.89 ± 4.5 | 13.09 ± 2.9 | 10.18 ± 2.2 | 98.56 ± 7.9 | 28.56 ± 3.9 | 15.27 ± 4.4 | 91.18 ± 6.8 | 22.94 ± 3.8 | 95.82 ± 6.2 | 60.11 ± 7.2 | 28.99 ± 6.9 | 97.41 ± 8.4
2 | Hsp72: Endotoxin-free recombinant Hsp72 produced using the baculovirus expression vector system and expressed in insect cells | 48.54 ± 6.3 | 31.85 ± 9.2 | 96.88 ± 3.8 | 32.68 ± 7.5 | 21.57 ± 5.4 | 95.48 ± 5.1 | – | – | – | – | – | – | – | – | – | – | – | – | – | –
